{
  "source": "patent US9573911B2",
  "about": "“Diphosphate mimetics and uses thereof” (President and Fellows of Harvard College, priority 2011, dated 2017)",
  "target": "T1, OGT (Homo sapiens, UniProt O15294)",
  "T1 construct": "hOGT4.5 construct (spanning residues 313-1031 based on the numbering of the full length human protein); made in house",
  "T1 sequence (O15294 313-1031 isoform O15294-3)": "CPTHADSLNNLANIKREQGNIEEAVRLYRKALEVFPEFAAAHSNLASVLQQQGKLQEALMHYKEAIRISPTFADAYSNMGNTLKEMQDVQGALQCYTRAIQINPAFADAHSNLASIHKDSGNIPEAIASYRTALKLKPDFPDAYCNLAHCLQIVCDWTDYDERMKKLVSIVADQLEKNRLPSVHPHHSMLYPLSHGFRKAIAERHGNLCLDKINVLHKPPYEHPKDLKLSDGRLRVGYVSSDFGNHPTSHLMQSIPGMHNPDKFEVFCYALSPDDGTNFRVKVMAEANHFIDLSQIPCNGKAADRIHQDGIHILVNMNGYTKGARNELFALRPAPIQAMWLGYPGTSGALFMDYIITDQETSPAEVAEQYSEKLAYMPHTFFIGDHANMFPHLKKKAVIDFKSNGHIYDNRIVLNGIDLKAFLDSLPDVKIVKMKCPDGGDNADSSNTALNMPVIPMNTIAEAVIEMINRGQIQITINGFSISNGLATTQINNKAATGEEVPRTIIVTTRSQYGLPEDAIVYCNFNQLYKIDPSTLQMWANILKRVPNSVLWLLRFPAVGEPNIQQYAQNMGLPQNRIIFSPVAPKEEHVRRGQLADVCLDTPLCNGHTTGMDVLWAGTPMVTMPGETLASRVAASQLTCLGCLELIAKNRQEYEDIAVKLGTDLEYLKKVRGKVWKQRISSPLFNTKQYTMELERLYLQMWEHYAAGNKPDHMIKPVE",
  "assay": "Western blot of BZX inhibitor treated cell lysates (O-GlcNAcylation by added OGT)",
  "format": "biochemical",
  "conditions": "MCF-10A ErbB2 cell lysates; OGT 2 μM, UDP-GlcNAc 1 mM, BZX inhibitors 200 μM",
  "protocol": "[…] ErbB2 cells were maintained in DMEM/F12 (Invitrogen) supplemented with 5% horse serum (Invitrogen), 20 ng/ml EGF (Peprotech), 10 μg/ml insulin (Sigma), 100 ng/ml cholera toxin (Sigma), […] hydrocortisone (Sigma), 50 U/ml penicillin, and 50 μg/ml streptomycin (Invitrogen) to reach 70% confluence. The cells were then grown for another 9 hours in glucose starvation medium (DMEM-no glucose (Invitrogen) supplemented with 1% horse serum, 50 U/ml penicillin and 50 μg/ml streptomycin) before harvest. The cell lysates, prepared as described above, were divided into four tubes with each tube containing the same amount of protein. Nothing was added to tube I; OGT (2 μM) and DMSO (1%) were added into tube II; OGT (2 μM) and (2) (200 μM) were added to tube III; OGT (2 μM) and 1 (200 μM) were added to tube IV. The four samples were incubated at room temperature for 30 min before adding UDP-GlcNAc (1 mM) and incubated for another 2 hours. After incubation, all samples were analyzed with SDS-PAGE and a Western blot was carried out using the anti-O-GlcNAc antibody as described above.",
  "data": [
    {"compound": "COc1ccc(OC(=O)n2c(=O)oc3cc(C(C)=O)ccc32)cc1", "note": "[Compound 2]", "values": [
      {"measurement": "inhibition of OGT activity (O-GlcNAcylation) in cell lysates", "result": "more potent inhibitor of OGT activity than compound (1)"}
    ]}
  ]
}
